Assay results published in patent US4046904A, “Novel penicillin, and its preparation and use” (Sumitomo Chemical Company, Limited, priority 1975, dated 1977).
In brackets after ≈: the same amount, converted by molar mass. Read-outs that look alike come from different tables or passages of the source.

Tests used:
[1] = Acute toxicity in mice, intraperitoneal (Table 9); details: mouse, in vivo, ip
Source text: The acute toxicity of Compound (I) and Compound (C) in ICR strain mice when administered by intraperitoneal route are shown in Table 9.
(§1) Note: Compound (I) and Compound (C) were subjected to the test in the form of the sodium salt.

[2] = tested on: Escherichia coli; assay: MIC (Table 3); assay type: cell-based
Source text: (§2) The minimum inhibitory concentrations obtained with Compound (I) and Compound (C) against the following organisms representing 6 genera are shown in Table 3.
as §1

[3] = tested on: Pseudomonas aeruginosa; assay: MIC (Table 3); assay type: cell-based; details: Pseudomonas aeruginosa strain 104; sodium salt
Source text: as §2, §1

[4] = tested on: Staphylococcus aureus; assay: MIC (Table 3); assay type: cell-based
Source text: as §2, §1

[5] = tested on: Klebsiella pneumoniae; assay: MIC (Table 3); assay type: cell-based; details: Klebsiella pneumoniae strain PCI602; sodium salt
Source text: as §2, §1

[6] = tested on: Proteus vulgaris; assay: MIC (Table 3); assay type: cell-based; details: Proteus vulgaris strain HX19; sodium salt
Source text: as §2, §1

[7] = tested on: Proteus mirabilis; assay: MIC (Table 3); assay type: cell-based
Source text: as §2, §1

[8] = tested on: Escherichia coli; assay: Intraperitoneal infection in mice, median protective dose (Table 2); assay type: in vivo; details: sc, subcutaneous, 1 and 4 hours after infection, sodium salt, read-out: PD50
Procedure: (§3) Note: Compound (I), Compound (A) and Compound (B) were subjected to the test in the form of the sodium salt. For each test, eight male ICR-SLC strain mice were used at each dose level. MIC was determined by the nutrient broth dilution method. In determination of PD50, subcutaneous treatment was carried out twice, i.e. 1 and 4 hours after infection.

[9] = tested on: Pseudomonas aeruginosa; assay: as above; assay type: in vivo; details: subcutaneous; for ED50: sc, 1 and 4 hours after infection, sodium salt, read-out: PD50
Procedure: as §3

[10] = tested on: Klebsiella pneumoniae; assay: as above; assay type: in vivo; details: subcutaneous; for ED50: sc, 1 and 4 hours after infection, sodium salt, read-out: PD50
Procedure: as §3

[11] = tested on: Streptococcus faecalis; assay: Intraperitoneal infection in mice, median protective dose (Table 5); assay type: in vivo
Procedure: (§4) The relative activities of Compound (I) and Compound (C) against various intraperitioneal infections in mice evaluated by the minimum inhibitory concentrations and the means median protective doses (subcutaneously administered) are shown in Table 5.
(§5) Note: Compound (I) and Compound (C) were subjected to the test in the form of the sodium salt. For each test, five male ICR-SLC strain mice were used at each dose level. MIC was determined by the nutrient broth dilution method. In determination of PD50, subsutaneous treatment was carried out three times, i.e. 1, 3 and 5 hours after infection.

[12] = tested on: Pseudomonas aeruginosa; assay: as above; assay type: in vivo
Procedure: as §4, §5

[13] = tested on: Staphylococcus aureus; assay: as above; assay type: in vivo
Procedure: as §4, §5

[14] = tested on: Klebsiella pneumoniae; assay: as above; assay type: in vivo
Procedure: as §4, §5

[15] = solubility in pharmaceutical diluents; assay type: physicochemical; details: e.g. water; relative to said penicillins
[16] = Serum level in mice after subcutaneous administration (Table 7); assay type: in vivo, ICR-SLC strain mice; details: mouse, sc, subcutaneous 50 mg/kg, sodium salt
Procedure: The peak serum concentrations of Compound (I) and Compound (C) in ICR strain mice following subcutaneous administration at 50 mg/kg are shown in Table 7.
Note: Compound (I) and Compound (C) were subjected to the test in the form of the sodium salt. For the test, three male ICR-SLC strain mice were used. The bioassay was carried out according to the disc method using Bacillus subtilis.

[17] = Urinary excretion rate in rats after intramuscular administration (Table 8); assay type: in vivo, Wistar-HLA strain rats; details: rat, urine, im, 20 mg/kg, male rats, intramuscular 20 mg/kg, sodium salt
Procedure: The urinary excretion rates of Compound (I) and Compound (C) following an intramuscular administration of 20 mg/kg in male Wistar-HLA strain rats are shown in Table 8.
as §1

[18] = tested on: Streptococcus faecalis; assay: Median MIC, clinical isolates, agar-plate dilution (Table 4); assay type: cell-based
Procedure: (§6) Note: Compound (I) and Compound (C) were subjected to the test in the form of the sodium salt. MIC was determined using the agar-plate dilution method.

[19] = tested on: Staphylococcus aureus; assay: as above; assay type: cell-based
Procedure: as §6

[20] = tested on: Serratia; assay: Median MIC, clinical isolates, agar-plate dilution (Table 1); assay type: cell-based
Procedure: (§7) Note: Compound (I) and Compound (A) were subjected to the test in the form of the sodium salt. The minimum inhibitory concentration (MIC) was determined using the agar-plate dilution method recommended by Japan Society of Chemotherapy.

[21] = tested on: Proteus morganii; assay: as above; assay type: cell-based
Procedure: as §7

[22] = tested on: Pseudomonas aeruginosa; assay: as above; assay type: cell-based; details: 49 clinical isolates, sodium salt, read-out: Median minimum inhibitory concentration
Procedure: as §7

[23] = tested on: Escherichia; assay: as above; assay type: cell-based; details: read-out: Median minimum inhibitory concentration
Procedure: as §7

[24] = tested on: Staphylococcus aureus; assay: as above; assay type: cell-based; details: 37 clinical isolates, sodium salt, read-out: Median minimum inhibitory concentration
Procedure: as §7

[25] = tested on: Klebsiella pneumoniae; assay: as above; assay type: cell-based
Procedure: as §7

[26] = tested on: Proteus vulgaris; assay: as above; assay type: cell-based
Procedure: as §7

CC1(C)S[C@@H]2[C@H](NC(=O)[C@H](NC(=O)c3ccnnc3O)c3ccc(O)cc3)C(=O)N2[C@H]1C(=O)O [Compound (I), 6-[D-2-(3-hydroxypyridazine-4-carbonamido)-2-(p-hydroxyphenyl)acetamido]penicillanic acid]
LD50 [1]: 7100 mg/kg | antibacterial activity relative to Compound (C) ([2]; Escherichia coli): inferior | MIC ([2]; Escherichia coli strain NIHJ, sodium salt): 6.25 µg/mL | MIC [3]: 1.56 µg/mL | antibacterial activity relative to Compound (C) ([4]; Staphylococcus aureus): superior | MIC ([4]; Staphylococcus aureus strain 209P, sodium salt): 0.39 µg/mL | MIC [5]: 12.5 µg/mL | MIC [6]: 0.025 µg/mL | antibacterial activity relative to Compound (C) ([7]; Proteus mirabilis): inferior | MIC ([7]; Proteus mirabilis strain GN2425, sodium salt): 6.25 µg/mL | ED50 ([8]; E. coli strain NIHJ, male ICR-SLC mice): 3.2 mg/kg | ED50 ([8]; E. coli strain No. 37, male ICR-SLC mice): 31 mg/kg | PD50 relative to Compound (A) and Compound (B) ([9]; mice): markedly superior | ED50 ([9]; P. aeruginosa strain NC-5, male ICR-SLC mice): 22 mg/kg | ED50 ([9]; P. aeruginosa strain T, male ICR-SLC mice): 35 mg/kg | PD50 relative to Compound (A) and Compound (B) ([10]; mice): markedly superior | ED50 ([10]; K. pneumoniae strain No. 1, male ICR-SLC mice): 25 mg/kg | ED50 ([10]; K. pneumoniae strain No. 6, male ICR-SLC mice): 36 mg/kg | ED50 ([10]; K. pneumoniae strain No. 20, male ICR-SLC mice): 31 mg/kg | ED50 ([11]; Enterococcus faecalis, sc, S. faecalis strain F10, male ICR-SLC mice, subcutaneous, 1, 3 and 5 hours after infection, sodium salt, read-out: PD50): 1.1 mg/kg | PD50 relative to Compound (C) ([11]; Streptococcus faecalis, mice, subcutaneous): markedly superior | PD50 relative to Compound (C) ([12]; mice, subcutaneous): inferior | ED50 ([12]; sc, P. aeruginosa strain TS, male ICR-SLC mice, subcutaneous, 1, 3 and 5 hours after infection, sodium salt, read-out: PD50): 22 mg/kg | PD50 relative to Compound (C) ([13]; mice, subcutaneous): markedly superior | ED50 ([13]; sc, S. aureus strain A24, male ICR-SLC mice, subcutaneous, 1, 3 and 5 hours after infection, sodium salt, read-out: PD50): 2 mg/kg | PD50 relative to Compound (C) ([14]; mice, subcutaneous): approximately equal | ED50 ([14]; sc, K. pneumoniae strain No. 1, male ICR-SLC mice, subcutaneous, 1, 3 and 5 hours after infection, sodium salt, read-out: PD50): 16 mg/kg | solubility in pharmaceutical diluents [15]: higher solubility | concentration at 0.5 h ([16]; 1/2 hr.): 35000 ng/mL | concentration at 0.25 h ([16]; 1/4 hr.): 69000 ng/mL | concentration at 1 h ([16]; 1 hr.): 14000 ng/mL | concentration at 2 h ([16]; 2 hr.): 3000 ng/mL | dose excreted at 6 h ([17]; 0-6 hr.): 54% | dose excreted at 24 h ([17]; 0-24 hr.): 55% | dose excreted at 24 h ([17]; 6-24 hr.): 1% | MIC50 ([18]; Enterococcus faecalis, 23 strains, agar-plate dilution, sodium salt, read-out: Median minimum inhibitory concentration): 2 µg/mL | antibacterial activity relative to Compound (C) ([18]; clinical isolates): superior | MIC50 ([19]; 37 strains, agar-plate dilution, sodium salt, read-out: Median minimum inhibitory concentration): 15 µg/mL | antibacterial activity relative to Compound (C) ([19]; clinical isolates): superior | MIC50 ([20]; 6 clinical isolates, sodium salt, read-out: Median minimum inhibitory concentration): 31 µg/mL | antibacterial activity relative to Compound (A) ([20]; clinical isolates): superior | MIC50 ([21]; Morganella morganii, 14 clinical isolates, sodium salt, read-out: Median minimum inhibitory concentration): 4.4 µg/mL | antibacterial activity relative to Compound (A) ([21]; clinical isolates): superior | MIC50 [22]: 10 µg/mL | MIC50 [23]: 12 µg/mL (≈ 24.6 µM) | MIC50 [24]: 13 µg/mL | MIC50 ([25]; 26 clinical isolates, sodium salt, read-out: Median minimum inhibitory concentration): 21 µg/mL | antibacterial activity relative to Compound (A) ([25]; clinical isolates): superior | MIC50 ([26]; 7 clinical isolates, sodium salt, read-out: Median minimum inhibitory concentration): 8.8 µg/mL | antibacterial activity relative to Compound (A) ([26]; clinical isolates): superior
